Laboratory results as given in PubChem BioAssay AID256 (DTP/NCI, 2004).
Toxic doses and inconclusive results are not listed. How the source made its calls: active means survival T/C of 150% or more; inactive means T/C below 125% in these data.

Test system: CD2F1 mice, L1210 leukemia ip, survival T/C
Assay: NCI In Vivo Anticancer Drug Screen. Data for tumor model L1210 Leukemia (intraperitoneal) in CD2F1 (CDF1) mice
Conditions: endpoint: mean survival time, higher = longer survival
Procedure, shortened: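 Transplantable tumor in mice; compound-treated vs vehicle-treated groups. Read-out = treated/control ratio of the measured endpoint.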

[1] = dose: 100.0 mg/kg/injection, schedule: Q01DX009 (ip), vehicle: saline with Tween-80
[2] = dose: 200.0 mg/kg/injection, schedule: Q01DX009 (ip), vehicle: saline with Tween-80
[3] = dose: 400.0 mg/kg/injection, schedule: Q01DX009 (ip), vehicle: saline with Tween-80
[4] = dose: 12.5 mg/kg/injection, schedule: Q01DX009 (ip), vehicle: saline with Tween-80
[5] = dose: 25.0 mg/kg/injection, schedule: Q01DX009 (ip), vehicle: saline with Tween-80
[6] = dose: 50.0 mg/kg/injection, schedule: Q01DX009 (ip), vehicle: saline with Tween-80
[7] = dose: 100.0 mg/kg/injection, schedule: Q01DX001 (ip), vehicle: saline
[8] = dose: 200.0 mg/kg/injection, schedule: Q01DX001 (ip), vehicle: saline
[9] = dose: 400.0 mg/kg/injection, schedule: Q01DX001 (ip), vehicle: saline
[10] = dose: 100.0 mg/kg/injection, schedule: Q04DX003 (ip), vehicle: saline with Tween-80
[11] = dose: 200.0 mg/kg/injection, schedule: Q04DX003 (ip), vehicle: saline with Tween-80
[12] = dose: 400.0 mg/kg/injection, schedule: Q04DX003 (ip), vehicle: saline with Tween-80
[13] = dose: 25.0 mg/kg/injection, schedule: Q04DX003 (ip), vehicle: saline with Tween-80
[14] = dose: 50.0 mg/kg/injection, schedule: Q04DX003 (ip), vehicle: saline with Tween-80

Measured: T/C

COC(c1ccccc1)C(Br)c1ccccc1 (stereo not drawn)
inactive: [1] 97 % of control | dose: 100.0 mg/kg/injection, schedule: Q04DX003 (ip), vehicle: saline sonified 103 % of control | [2] 97 % of control | dose: 200.0 mg/kg/injection, schedule: Q04DX003 (ip), vehicle: saline sonified 100 % of control | [3] 109 % of control | dose: 400.0 mg/kg/injection, schedule: Q04DX003 (ip), vehicle: saline sonified 105 % of control

CC(=C(C#N)C#N)c1ccccc1
inactive: [4] 92 % of control | [5] 89 % of control | [6] 87 % of control

O=C(CC(O)(C(F)(F)F)C(F)(F)F)c1cccc(C(F)(F)F)c1
inactive: dose: 100.0 mg/kg/injection, schedule: Q01DX001 (ip), vehicle: saline with Tween-80 90 % of control | dose: 200.0 mg/kg/injection, schedule: Q01DX001 (ip), vehicle: saline with Tween-80 108 % of control | dose: 400.0 mg/kg/injection, schedule: Q01DX001 (ip), vehicle: saline with Tween-80 103 % of control

ClC/C(=N\N1CCCCCC1)c1ccccc1
inactive: [7] 103 % of control | [8] 103 % of control | [9] 102 % of control

O=C(COc1ccc(S[N+](=O)[O-])cc1)c1ccccc1
inactive: [7] 105 % of control | [8] 103 % of control | [9] 94 % of control

CC(=O)Nc1ccc(OCCOC(=O)Nc2ccc(C)c([N+](=O)[O-])c2)cc1
inactive: [4] 92 % of control | [5] 88 % of control | [6] 92 % of control

CCn1c(C)nc2cc(C(N)=O)ccc21
inactive: [1] 97 % of control | [10] 100 % of control | [2] 91 % of control | [11] 96 % of control | [12] 102 % of control

CC(=O)O.[Ag]
inactive: dose: 5.0 mg/kg/injection, schedule: Q01DX001 (ip), vehicle: saline 93 % of control | dose: 10.0 mg/kg/injection, schedule: Q01DX001 (ip), vehicle: saline 96 % of control | dose: 20.0 mg/kg/injection, schedule: Q01DX001 (ip), vehicle: saline 97 % of control | dose: 40.0 mg/kg/injection, schedule: Q01DX001 (ip), vehicle: saline 100 % of control | dose: 80.0 mg/kg/injection, schedule: Q01DX001 (ip), vehicle: saline 100 % of control | [7] 91 % of control

CCCCCCCCSC#N
inactive: dose: 50.0 mg/kg/injection, schedule: Q01DX001 (ip), vehicle: carboxymethylcellulose (CMC) 100 % of control

c1cc2c3c(cccc3c1)/C(=C1/Cc3cccc4cccc1c34)C2
inactive: [1] 107 % of control | [10] 103 % of control | [2] 113 % of control | [11] 104 % of control | [3] 110 % of control | [12] 107 % of control

O=S1(=O)Cc2c(Br)c(Br)c(Br)c(Br)c2C1
inactive: [4] 90 % of control | [5] 88 % of control | [6] 86 % of control | [10] 101 % of control | [11] 110 % of control | [12] 96 % of control

O=c1[nH]cnc2n[nH]nc12
inactive: dose: 12.5 mg/kg/injection, schedule: Q01DX009 (ip), vehicle: Klucel (hydroxypropylcellulose) (HPC) 116 % of control | dose: 25.0 mg/kg/injection, schedule: Q01DX009 (ip), vehicle: Klucel (hydroxypropylcellulose) (HPC) 119 % of control | dose: 75.0 mg/kg/injection, schedule: Q01DX001 (ip), vehicle: other 103 % of control | dose: 150.0 mg/kg/injection, schedule: Q01DX001 (ip), vehicle: other 108 % of control | dose: 300.0 mg/kg/injection, schedule: Q01DX001 (ip), vehicle: other 108 % of control

O=C(COc1ccc(Cl)c(Cl)c1)Nc1ccc[n+](Cc2ccccc2)c1
inactive: dose: 12.5 mg/kg/injection, schedule: Q04DX003 (ip), vehicle: saline with Tween-80 104 % of control | [13] 98 % of control | [14] 89 % of control

O=[N+]([O-])c1ccc(N=Nc2ccc(N3CC3)c([N+](=O)[O-])c2)cc1
inactive: dose: 65.0 mg/kg/injection, schedule: Q01DX001 (ip), vehicle: Klucel (hydroxypropylcellulose) (HPC) 96 % of control | dose: 130.0 mg/kg/injection, schedule: Q01DX001 (ip), vehicle: Klucel (hydroxypropylcellulose) (HPC) 88 % of control | dose: 260.0 mg/kg/injection, schedule: Q01DX001 (ip), vehicle: Klucel (hydroxypropylcellulose) (HPC) 89 % of control

CC(C)(C)CC(C)(C)c1ccc(OCCOS(=O)(=O)c2cccc([N+](=O)[O-])c2)cc1
inactive: [6] 96 % of control | [1] 89 % of control | [2] 94 % of control

COc1cc(C(=O)C(=O)c2cc(OC)c(OC)c(OC)c2)cc(OC)c1OC
inactive: dose: 100.0 mg/kg/injection, schedule: Q01DX009 (ip), vehicle: Klucel (hydroxypropylcellulose) (HPC) 101 % of control | dose: 200.0 mg/kg/injection, schedule: Q01DX009 (ip), vehicle: Klucel (hydroxypropylcellulose) (HPC) 106 % of control | dose: 400.0 mg/kg/injection, schedule: Q01DX009 (ip), vehicle: Klucel (hydroxypropylcellulose) (HPC) 113 % of control

COc1ccc(C(O)(c2ccccc2)C(C)O)cc1 (stereo not drawn)
inactive: [10] 101 % of control | [11] 98 % of control | [12] 98 % of control

c1cc[n+](C[n+]2ccccc2)cc1
inactive: [7] 101 % of control | dose: 100.0 mg/kg/injection, schedule: Q04DX003 (ip), vehicle: saline 96 % of control | [8] 101 % of control | dose: 200.0 mg/kg/injection, schedule: Q04DX003 (ip), vehicle: saline 97 % of control | [9] 101 % of control | dose: 400.0 mg/kg/injection, schedule: Q04DX003 (ip), vehicle: saline 100 % of control

Cc1cc(Cl)ccc1[NH-].Cc1cc(Cl)ccc1[NH-].[Cl][Pt+2][Cl]
inactive: [13] 100 % of control | [14] 94 % of control | [10] 94 % of control | [11] 94 % of control | [12] 97 % of control

Oc1ccc(I)c2cccnc12
inactive: [4] 98 % of control | [5] 98 % of control | dose: 45.0 mg/kg/injection, schedule: Q01DX009 (ip), vehicle: saline 97 % of control | [6] 98 % of control | dose: 90.0 mg/kg/injection, schedule: Q01DX009 (ip), vehicle: saline 108 % of control | [1] 98 % of control | dose: 180.0 mg/kg/injection, schedule: Q01DX009 (ip), vehicle: saline 112 % of control | [2] 104 % of control

COC(=O)/C(C#N)=C(\C)CC(C)C
inactive: dose: 75.0 mg/kg/injection, schedule: Q01DX001 (ip), vehicle: saline 100 % of control | dose: 150.0 mg/kg/injection, schedule: Q01DX001 (ip), vehicle: saline 94 % of control

CC(=O)OCC1OC(OC(C)=O)C(NC(=O)N(CCOCCCl)N=O)C(OC(C)=O)C1OC(C)=O (stereo not drawn)
inactive: dose: 6.25 mg/kg/injection, schedule: Q01DX001 (ip), vehicle: distilled water + Tween-80 101 % of control | dose: 12.5 mg/kg/injection, schedule: Q01DX001 (ip), vehicle: distilled water + Tween-80 101 % of control | dose: 25.0 mg/kg/injection, schedule: Q01DX001 (ip), vehicle: distilled water + Tween-80 93 % of control | dose: 50.0 mg/kg/injection, schedule: Q01DX001 (ip), vehicle: distilled water + Tween-80 93 % of control | dose: 100.0 mg/kg/injection, schedule: Q01DX001 (ip), vehicle: distilled water + Tween-80 101 % of control | dose: 200.0 mg/kg/injection, schedule: Q01DX001 (ip), vehicle: distilled water + Tween-80 97 % of control | dose: 400.0 mg/kg/injection, schedule: Q01DX001 (ip), vehicle: distilled water + Tween-80 109 % of control

CC(C)CCOC(=O)Nc1cccc(O)c1
inactive: [10] 98 % of control | [11] 100 % of control | [12] 101 % of control

CCCCCCCCCC1=NC(C)(C)CN1C(C)(C)CO
inactive: dose: 1.25 mg/kg/injection, schedule: Q01DX009 (ip), vehicle: saline with Tween-80 106 % of control | dose: 2.5 mg/kg/injection, schedule: Q01DX009 (ip), vehicle: saline with Tween-80 109 % of control | dose: 5.0 mg/kg/injection, schedule: Q01DX009 (ip), vehicle: saline with Tween-80 91 % of control

c1ccc2c(c1)CC1Sc3ccccc3N=C21 (stereo not drawn)
inactive: [6] 91 % of control | [1] 91 % of control | [2] 94 % of control

CC(=O)NC1(C(=O)O)SCCCS1
inactive: dose: 50.0 mg/kg/injection, schedule: Q04DX002 (ip), vehicle: saline with Tween-80 92 % of control | dose: 100.0 mg/kg/injection, schedule: Q04DX002 (ip), vehicle: saline with Tween-80 100 % of control | dose: 400.0 mg/kg/injection, schedule: Q04DX002 (ip), vehicle: saline with Tween-80 89 % of control

O=C(Nc1ccccc1)OC1CCCCC1
inactive: [10] 101 % of control | [11] 100 % of control | [12] 97 % of control
